Common to all, as to assay: biochemical
Set-up in all cases: Eurofins KinaseProfiler full panel at Km ATP, residual kinase activity (%) relative to DMSO

The target of assay [1] is MAP4K4(h) (Homo sapiens, UniProt O95819). The procedure, abridged: (§1)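 Radiometric kinase activity assays were run with ATP at Km and compounds at 10 µM, and remaining activity (%) was reported. A separate competitive binding screen measured DNA-tagged kinase displaced from immobilized active-site ligands by qPCR, giving percent kinase still bound at 10 µM compound in DMSO.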
Sequence of MAP4K4(h) (O95819 whole entry): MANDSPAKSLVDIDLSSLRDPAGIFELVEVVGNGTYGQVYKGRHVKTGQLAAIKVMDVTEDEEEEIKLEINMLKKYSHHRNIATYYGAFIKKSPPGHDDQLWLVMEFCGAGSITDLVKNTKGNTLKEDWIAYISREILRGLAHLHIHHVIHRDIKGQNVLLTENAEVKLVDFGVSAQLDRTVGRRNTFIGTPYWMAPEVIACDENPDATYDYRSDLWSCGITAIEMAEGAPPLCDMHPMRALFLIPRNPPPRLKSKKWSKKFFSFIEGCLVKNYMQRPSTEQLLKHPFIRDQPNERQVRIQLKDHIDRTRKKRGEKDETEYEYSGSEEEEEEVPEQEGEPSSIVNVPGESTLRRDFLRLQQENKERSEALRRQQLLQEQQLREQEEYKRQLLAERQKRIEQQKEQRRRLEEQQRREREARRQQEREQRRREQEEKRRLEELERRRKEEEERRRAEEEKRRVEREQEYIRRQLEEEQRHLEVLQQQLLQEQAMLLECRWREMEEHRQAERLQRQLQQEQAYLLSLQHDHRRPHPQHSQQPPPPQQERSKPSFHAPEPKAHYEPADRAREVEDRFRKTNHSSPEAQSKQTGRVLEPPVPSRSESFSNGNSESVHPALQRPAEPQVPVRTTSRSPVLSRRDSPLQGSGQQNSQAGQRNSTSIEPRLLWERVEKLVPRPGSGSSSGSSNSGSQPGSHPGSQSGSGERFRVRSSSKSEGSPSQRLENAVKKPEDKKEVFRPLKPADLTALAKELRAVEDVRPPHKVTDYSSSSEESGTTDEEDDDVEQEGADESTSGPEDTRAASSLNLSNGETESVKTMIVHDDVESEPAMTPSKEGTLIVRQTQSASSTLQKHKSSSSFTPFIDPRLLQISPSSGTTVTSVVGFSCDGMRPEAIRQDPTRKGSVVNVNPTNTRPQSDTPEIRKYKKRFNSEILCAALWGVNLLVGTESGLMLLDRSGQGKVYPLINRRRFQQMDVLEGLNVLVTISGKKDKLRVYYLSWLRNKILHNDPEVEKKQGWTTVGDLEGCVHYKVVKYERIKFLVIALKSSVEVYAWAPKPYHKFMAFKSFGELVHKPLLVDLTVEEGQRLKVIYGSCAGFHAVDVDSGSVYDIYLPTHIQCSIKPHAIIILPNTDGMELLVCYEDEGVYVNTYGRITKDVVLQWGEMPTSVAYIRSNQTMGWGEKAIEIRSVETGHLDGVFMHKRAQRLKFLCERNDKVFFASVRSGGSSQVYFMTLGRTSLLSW

In assay [2] the target is T1, MRCKγ(h) (Homo sapiens, UniProt Q6DT37).
T1 construct: gene CDC42BPG
T1 sequence (Q6DT37 whole entry): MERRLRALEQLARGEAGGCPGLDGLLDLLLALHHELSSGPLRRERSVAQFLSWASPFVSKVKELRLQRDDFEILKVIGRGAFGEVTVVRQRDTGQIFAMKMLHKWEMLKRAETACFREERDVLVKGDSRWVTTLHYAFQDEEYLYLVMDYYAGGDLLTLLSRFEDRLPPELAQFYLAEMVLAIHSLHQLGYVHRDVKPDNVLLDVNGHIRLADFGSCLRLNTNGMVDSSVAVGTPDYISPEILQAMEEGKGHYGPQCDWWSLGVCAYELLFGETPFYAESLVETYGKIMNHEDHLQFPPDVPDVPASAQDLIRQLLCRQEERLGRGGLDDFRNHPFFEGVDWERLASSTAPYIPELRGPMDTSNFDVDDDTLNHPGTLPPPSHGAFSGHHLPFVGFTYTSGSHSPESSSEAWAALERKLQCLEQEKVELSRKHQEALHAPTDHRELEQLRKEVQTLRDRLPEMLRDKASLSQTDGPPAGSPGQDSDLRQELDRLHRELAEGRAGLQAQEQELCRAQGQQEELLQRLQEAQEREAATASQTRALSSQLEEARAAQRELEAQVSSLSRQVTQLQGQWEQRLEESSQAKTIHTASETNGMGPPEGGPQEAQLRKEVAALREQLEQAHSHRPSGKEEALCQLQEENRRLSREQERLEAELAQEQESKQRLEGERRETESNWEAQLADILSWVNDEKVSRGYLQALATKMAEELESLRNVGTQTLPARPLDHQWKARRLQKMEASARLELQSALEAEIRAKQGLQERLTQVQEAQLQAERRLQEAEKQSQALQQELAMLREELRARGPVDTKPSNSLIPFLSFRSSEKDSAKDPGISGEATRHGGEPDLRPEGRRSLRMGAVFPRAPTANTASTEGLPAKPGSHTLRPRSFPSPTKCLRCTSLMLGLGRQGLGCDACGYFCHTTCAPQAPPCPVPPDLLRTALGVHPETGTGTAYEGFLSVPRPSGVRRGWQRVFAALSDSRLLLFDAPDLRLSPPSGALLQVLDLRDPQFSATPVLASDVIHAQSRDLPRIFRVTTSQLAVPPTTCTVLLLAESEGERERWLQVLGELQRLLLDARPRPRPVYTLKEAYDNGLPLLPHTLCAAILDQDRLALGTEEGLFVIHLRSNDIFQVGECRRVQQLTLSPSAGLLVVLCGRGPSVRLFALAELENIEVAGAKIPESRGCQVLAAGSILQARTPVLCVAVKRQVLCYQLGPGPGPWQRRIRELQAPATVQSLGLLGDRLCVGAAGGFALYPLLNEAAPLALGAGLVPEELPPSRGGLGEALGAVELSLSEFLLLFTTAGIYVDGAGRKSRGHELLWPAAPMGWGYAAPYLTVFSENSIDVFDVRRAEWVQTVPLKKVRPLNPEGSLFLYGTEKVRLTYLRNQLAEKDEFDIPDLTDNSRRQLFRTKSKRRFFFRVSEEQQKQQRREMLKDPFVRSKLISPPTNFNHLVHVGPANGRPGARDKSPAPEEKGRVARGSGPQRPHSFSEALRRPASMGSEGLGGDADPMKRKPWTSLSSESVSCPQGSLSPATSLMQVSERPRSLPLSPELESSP
Put shortly: as §1

The target of assay [3] is T2, MST1(h) (Homo sapiens, UniProt Q13043).
T2 construct: gene STK4
T2 sequence (Q13043 1-487): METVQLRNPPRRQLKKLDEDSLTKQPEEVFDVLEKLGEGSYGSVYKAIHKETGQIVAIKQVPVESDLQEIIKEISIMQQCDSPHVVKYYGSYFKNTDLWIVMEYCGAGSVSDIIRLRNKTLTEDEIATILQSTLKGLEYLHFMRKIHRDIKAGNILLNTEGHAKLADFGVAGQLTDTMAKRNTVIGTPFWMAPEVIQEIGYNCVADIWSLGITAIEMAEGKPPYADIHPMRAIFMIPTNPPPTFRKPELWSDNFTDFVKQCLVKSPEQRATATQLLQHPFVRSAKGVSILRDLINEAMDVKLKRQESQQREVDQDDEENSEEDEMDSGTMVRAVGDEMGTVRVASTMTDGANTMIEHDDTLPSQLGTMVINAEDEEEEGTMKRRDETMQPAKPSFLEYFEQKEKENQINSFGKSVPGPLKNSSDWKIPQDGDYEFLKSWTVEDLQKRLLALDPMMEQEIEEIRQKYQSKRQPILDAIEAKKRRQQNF
Put shortly:
as §1

Assay [4] addresses PAK5(h) (Homo sapiens, UniProt Q9P286). Put shortly: as §1
Assay [5] deals with Plk3(h) (Homo sapiens, UniProt Q9H4B4). The procedure, abridged: as §1
Sequence of Plk3(h) (Q9H4B4 whole entry): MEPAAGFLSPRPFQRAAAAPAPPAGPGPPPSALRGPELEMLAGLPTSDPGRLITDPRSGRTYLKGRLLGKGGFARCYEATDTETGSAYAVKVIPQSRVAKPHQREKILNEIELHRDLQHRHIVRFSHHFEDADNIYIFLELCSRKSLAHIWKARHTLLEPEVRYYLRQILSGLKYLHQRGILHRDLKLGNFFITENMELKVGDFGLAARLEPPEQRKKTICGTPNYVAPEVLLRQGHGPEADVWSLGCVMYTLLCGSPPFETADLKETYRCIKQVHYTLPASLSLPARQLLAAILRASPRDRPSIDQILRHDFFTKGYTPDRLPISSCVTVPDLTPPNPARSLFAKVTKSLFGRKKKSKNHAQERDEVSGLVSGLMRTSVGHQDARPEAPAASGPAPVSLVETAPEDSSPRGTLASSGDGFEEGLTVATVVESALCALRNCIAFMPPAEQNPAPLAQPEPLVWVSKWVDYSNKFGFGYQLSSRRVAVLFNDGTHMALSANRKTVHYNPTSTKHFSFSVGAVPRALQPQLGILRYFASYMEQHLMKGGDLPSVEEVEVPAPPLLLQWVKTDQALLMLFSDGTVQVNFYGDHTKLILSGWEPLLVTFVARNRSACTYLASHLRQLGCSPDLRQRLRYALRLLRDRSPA
Assay [6] deals with T3, SAPK4(h) (Homo sapiens, UniProt O15264).
T3 construct: gene MAPK13
T3 sequence (O15264 1-365): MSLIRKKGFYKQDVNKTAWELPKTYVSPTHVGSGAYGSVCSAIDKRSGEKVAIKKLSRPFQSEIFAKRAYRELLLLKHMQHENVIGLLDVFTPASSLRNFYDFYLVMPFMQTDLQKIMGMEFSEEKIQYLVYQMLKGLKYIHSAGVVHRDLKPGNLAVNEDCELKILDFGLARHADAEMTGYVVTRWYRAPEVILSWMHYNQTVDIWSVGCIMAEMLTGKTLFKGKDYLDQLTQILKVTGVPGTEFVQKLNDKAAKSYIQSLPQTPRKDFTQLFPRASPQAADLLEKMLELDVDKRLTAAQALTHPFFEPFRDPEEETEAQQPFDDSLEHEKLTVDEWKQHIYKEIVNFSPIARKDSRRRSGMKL
The procedure, abridged: as §1

Assay [7] addresses T4, TSSK1(h) (Homo sapiens, UniProt Q9BXA7).
T4 construct: gene TSSK1B
T4 sequence (Q9BXA7 1-367): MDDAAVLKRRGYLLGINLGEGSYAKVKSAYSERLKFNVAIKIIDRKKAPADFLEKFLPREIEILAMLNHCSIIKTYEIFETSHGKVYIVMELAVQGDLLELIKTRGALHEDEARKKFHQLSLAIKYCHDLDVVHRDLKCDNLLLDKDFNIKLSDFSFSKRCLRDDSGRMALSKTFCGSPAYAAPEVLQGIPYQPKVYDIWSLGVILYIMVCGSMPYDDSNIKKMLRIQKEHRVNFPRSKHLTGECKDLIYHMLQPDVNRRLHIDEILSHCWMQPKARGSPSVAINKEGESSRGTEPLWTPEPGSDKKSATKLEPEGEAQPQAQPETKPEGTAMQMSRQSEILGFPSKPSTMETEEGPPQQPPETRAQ
Put shortly:
as §1

The target in assay [8] is Wee1(h) (Homo sapiens, UniProt P30291). The procedure, abridged:
as §1

[9] abbreviates: read-out: Residual activity (%) Spautin-1 5aa.
Setting [10] is: read-out: Residual activity (%) 5as.
Where [11] appears, read: read-out: Residual activity (%) 5at.
Setting [12] is: read-out: Residual activity (%) 5ay.

Where two headings read alike, the source gives them in different places.

Sequence of Wee1(h) (P30291 whole entry): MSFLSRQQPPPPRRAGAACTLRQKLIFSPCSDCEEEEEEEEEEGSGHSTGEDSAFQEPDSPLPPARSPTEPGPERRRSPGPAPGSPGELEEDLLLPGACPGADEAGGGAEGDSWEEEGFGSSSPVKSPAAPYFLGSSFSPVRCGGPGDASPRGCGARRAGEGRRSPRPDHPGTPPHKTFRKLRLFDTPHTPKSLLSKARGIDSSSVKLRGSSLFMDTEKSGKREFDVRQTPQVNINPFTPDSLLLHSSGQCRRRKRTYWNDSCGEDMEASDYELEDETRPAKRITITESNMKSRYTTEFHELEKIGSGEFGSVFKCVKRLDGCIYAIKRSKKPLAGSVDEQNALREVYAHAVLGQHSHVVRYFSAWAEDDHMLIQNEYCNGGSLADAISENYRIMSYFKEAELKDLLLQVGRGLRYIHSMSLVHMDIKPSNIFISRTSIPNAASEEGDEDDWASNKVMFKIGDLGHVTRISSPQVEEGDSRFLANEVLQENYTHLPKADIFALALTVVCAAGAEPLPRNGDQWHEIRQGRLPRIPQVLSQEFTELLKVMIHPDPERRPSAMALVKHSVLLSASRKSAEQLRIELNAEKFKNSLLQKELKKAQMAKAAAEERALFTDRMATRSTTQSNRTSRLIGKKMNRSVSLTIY
Sequence of PAK5(h) (Q9P286 whole entry): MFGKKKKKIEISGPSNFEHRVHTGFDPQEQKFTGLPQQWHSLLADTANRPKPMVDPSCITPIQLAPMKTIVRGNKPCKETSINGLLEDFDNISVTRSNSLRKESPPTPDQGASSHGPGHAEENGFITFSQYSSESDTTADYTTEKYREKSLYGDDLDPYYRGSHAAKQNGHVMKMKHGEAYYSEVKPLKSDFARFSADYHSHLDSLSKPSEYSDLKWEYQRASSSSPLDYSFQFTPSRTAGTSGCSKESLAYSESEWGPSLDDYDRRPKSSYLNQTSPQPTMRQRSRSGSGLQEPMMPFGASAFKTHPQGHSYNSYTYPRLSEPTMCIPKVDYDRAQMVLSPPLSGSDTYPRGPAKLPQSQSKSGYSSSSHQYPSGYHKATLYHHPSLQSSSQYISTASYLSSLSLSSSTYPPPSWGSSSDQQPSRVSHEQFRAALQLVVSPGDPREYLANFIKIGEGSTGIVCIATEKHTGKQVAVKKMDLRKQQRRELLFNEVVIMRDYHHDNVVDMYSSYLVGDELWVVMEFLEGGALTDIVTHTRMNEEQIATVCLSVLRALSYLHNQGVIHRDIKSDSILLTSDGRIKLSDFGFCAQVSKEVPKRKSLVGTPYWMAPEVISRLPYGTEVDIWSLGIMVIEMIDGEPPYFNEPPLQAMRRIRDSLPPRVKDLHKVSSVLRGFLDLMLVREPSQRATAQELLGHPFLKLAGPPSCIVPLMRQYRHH

Regarding `Fc1ccc(CNc2ncnc3ccc(F)cc23)cc1` [5aa, 6-Fluoro-N-(4-fluorobenzyl)-4-Quinazolinamine], the remaining activity at 10 µM in assay [1] (setting [9]) was found to be 75%; in assay [2] (setting [9]), 105%; in assay [3] (setting [9]), 91%; in assay [4] (setting [9]), 95%; in assay [5] (setting [9]) it was 88%; in assay [6] (setting [9]), 97%. Moreover, the remaining activity at 10 µM in assay [7] (setting [9]) came out at 82%; in assay [8] (setting [9]), 109%.

For `Fc1ccc(CCNc2ncnc3ccc(F)cc23)cc1` [5as, 6-Fluoro-N-[2-(4-Fluorophenyl)Ethyl]-4-Quinazolinamine], the remaining activity at 10 µM was 75% in assay [1] (setting [10]); 98% in assay [2] (setting [10]); 78% in assay [3] (setting [10]); 85% in assay [4] (setting [10]); 94% in assay [5] (setting [10]); 105% in assay [6] (setting [10]). The results for the remaining activity at 10 µM in assay [7] (setting [10]) and in assay [8] (setting [10]) were 82% and 114%, respectively.

On to `Fc1ccc2ncnc(NCCc3ccc(Cl)cc3)c2c1` [5at, N-[2-(4-Chlorophenyl)Ethyl]-6-Fluoro-4-Quinazolinamine], for which the remaining activity at 10 µM is 92% in assay [1] (setting [11]); 102% in assay [2] (setting [11]); 97% in assay [3] (setting [11]); 86% in assay [4] (setting [11]); 99% in assay [5] (setting [11]); 92% in assay [6] (setting [11]). Also, the remaining activity at 10 µM in assay [7] (setting [11]) turned out to be 77%; in assay [8] (setting [11]), 89%.

Regarding `COc1ccc2ncnc(Nc3cccc(F)c3)c2c1` [5ay, N-(3-Fluorophenyl)-6-Methoxy-4-Quinazolinamine], the remaining activity at 10 µM was found to be 73% in assay [1] (setting [12]); 92% in assay [2] (setting [12]); 70% in assay [3] (setting [12]); 83% in assay [4] (setting [12]); 92% in assay [5] (setting [12]); 105% in assay [6] (setting [12]). Moreover, the results for the remaining activity at 10 µM in assay [7] (setting [12]) and in assay [8] (setting [12]) were 81% and 102%, respectively.

The values are drawn from article PMC7827406, “Structure–Activity Relationship (SAR) Study of Spautin-1 to Entail the Discovery of Novel NEK4 Inhibitors” (International Journal of Molecular Sciences, 2021).
